Reference: ChEMBL document CHEMBL1125035, “Synthesis and biological activity of novel vitamin D analogues: 24,24-difluoro-25-hydroxy-26,27-dimethylvitamin D3 and 24,24-difluoro-1 alpha,25-dihydroxy-26,27-dimethylvitamin D3” (1990)

How the values were obtained:
Rattus norvegicus [1] = assay: Ability to stimulate intestinal-calcium transport by the administration of compound in rats at a concentration of 50 pmol at 4 hr.; format: functional, Intestine
Rattus norvegicus [2] = assay: Ability to mobilize Bone-Calcium transport, following the administration of compound in rats at a concentration of 5 pmol at 4 hr.; format: functional, organism-based
Rattus norvegicus [3] = assay: Ability to stimulate intestinal-calcium transport by the administration of compound in rats at a concentration of 5000 pmol at 24 hr.; format: functional, Intestine
Rattus norvegicus [4] = assay: Ability to mobilize Bone-Calcium transport, following the administration of compound in rats at a concentration of 5000 pmol at 4 hr.; format: functional, organism-based
Rattus norvegicus [5] = assay: Ability to mobilize Bone-Calcium transport, following the administration of compound in rats at a concentration of 500 pmol at 24 hr.; format: functional, organism-based
Rattus norvegicus [6] = assay: Ability to mobilize Bone-Calcium transport, following the administration of compound in rats at a concentration of 500 pmol at 2 hr.; format: functional, organism-based
Rattus norvegicus [7] = assay: Ability to mobilize Bone-Calcium transport, following the administration of compound in rats at a concentration of 500 pmol at 47 hr.; format: functional, organism-based
Rattus norvegicus [8] = assay: Ability to mobilize Bone-Calcium transport, following the administration of compound in rats at a concentration of 500 pmol at 4 hr.; format: functional, organism-based
Rattus norvegicus [9] = assay: Ability to mobilize Bone-Calcium transport, following the administration of compound in rats at a concentration of 50 pmol at 13 hr.; format: functional, organism-based
Rattus norvegicus [10] = assay: Ability to mobilize Bone-Calcium transport, following the administration of compound in rats at a concentration of 50 pmol at 24 hr.; format: functional, organism-based
Rattus norvegicus [11] = assay: Ability to mobilize Bone-Calcium transport, following the administration of compound in rats at a concentration of 50 pmol at 2 hr.; format: functional, organism-based
Rattus norvegicus [12] = assay: Ability to mobilize Bone-Calcium transport, following the administration of compound in rats at a concentration of 50 pmol at 4 hr.; format: functional, organism-based
Rattus norvegicus [13] = assay: Ability to mobilize Bone-Calcium transport, following the administration of compound in rats at a concentration of 5 pmol at 24 hr.; format: functional, organism-based
Rattus norvegicus [14] = assay: Ability to mobilize Bone-Calcium transport, following the administration of compound in rats at a concentration of 5 pmol at 2 hr.; format: functional, organism-based
Rattus norvegicus [15] = assay: Ability to stimulate intestinal-calcium transport by the administration of compound in rats at a concentration of 5 pmol at 24 hr.; format: functional, Intestine
Rattus norvegicus [16] = assay: Ability to stimulate intestinal-calcium transport by the administration of compound in rats at a concentration of 5 pmol at 2 hr.; format: functional, Intestine
Rattus norvegicus [17] = assay: Ability to stimulate intestinal-calcium transport by the administration of compound in rats at a concentration of 5 pmol at 4 hr.; format: functional, Intestine
Rattus norvegicus [18] = assay: Ability to stimulate intestinal-calcium transport by the administration of compound in rats at a concentration of 50 pmol at 24 hr.; format: functional, Intestine
Rattus norvegicus [19] = assay: Ability to stimulate intestinal-calcium transport by the administration of compound in rats at a concentration of 50 pmol at 47 hr.; format: functional, Intestine
Rattus norvegicus [20] = assay: Ability to stimulate intestinal-calcium transport by the administration of compound in rats at a concentration of 5000 pmol at 2 hr.; format: functional, Intestine
Rattus norvegicus [21] = assay: Ability to stimulate intestinal-calcium transport by the administration of compound in rats at a concentration of 5000 pmol at 4 hr.; format: functional, Intestine
Rattus norvegicus [22] = assay: Ability to stimulate intestinal-calcium transport by the administration of compound in rats at a concentration of 5000 pmol at 72 hr.; format: functional, Intestine
Rattus norvegicus [23] = assay: Ability to stimulate intestinal-calcium transport by the administration of compound in rats at a concentration of 500 pmol at 24 hr.; format: functional, Intestine
Rattus norvegicus [24] = assay: Ability to stimulate intestinal-calcium transport by the administration of compound in rats at a concentration of 500 pmol at 2 hr.; format: functional, Intestine
Rattus norvegicus [25] = assay: Ability to stimulate intestinal-calcium transport by the administration of compound in rats at a concentration of 500 pmol at 47 hr.; format: functional, Intestine
Rattus norvegicus [26] = assay: Ability to stimulate intestinal-calcium transport by the administration of compound in rats at a concentration of 500 pmol at 4 hr.; format: functional, Intestine
Rattus norvegicus [27] = assay: Ability to mobilize Bone-Calcium transport, following the administration of compound in rats at a concentration of 5000 pmol at 13 hr.; format: functional, organism-based
Rattus norvegicus [28] = assay: Ability to mobilize Bone-Calcium transport, following the administration of compound in rats at a concentration of 5000 pmol at 24 hr.; format: functional, organism-based
Rattus norvegicus [29] = assay: Ability to mobilize Bone-Calcium transport, following the administration of compound in rats at a concentration of 5000 pmol at 2 hr.; format: functional, organism-based
Gallus gallus = organism: Gallus gallus; assay: Bind to chick intestinal Vitamin D3 receptor for 1,25-(OH)2-D3
[30] = biological target: T1, Vitamin D-binding protein (Rattus norvegicus) (UniProt P04276); assay: Displacement of [3H]25-(OH)-D3 from rat plasma Vitamin D binding protein; format: cell-free
T1 sequence (whole entry): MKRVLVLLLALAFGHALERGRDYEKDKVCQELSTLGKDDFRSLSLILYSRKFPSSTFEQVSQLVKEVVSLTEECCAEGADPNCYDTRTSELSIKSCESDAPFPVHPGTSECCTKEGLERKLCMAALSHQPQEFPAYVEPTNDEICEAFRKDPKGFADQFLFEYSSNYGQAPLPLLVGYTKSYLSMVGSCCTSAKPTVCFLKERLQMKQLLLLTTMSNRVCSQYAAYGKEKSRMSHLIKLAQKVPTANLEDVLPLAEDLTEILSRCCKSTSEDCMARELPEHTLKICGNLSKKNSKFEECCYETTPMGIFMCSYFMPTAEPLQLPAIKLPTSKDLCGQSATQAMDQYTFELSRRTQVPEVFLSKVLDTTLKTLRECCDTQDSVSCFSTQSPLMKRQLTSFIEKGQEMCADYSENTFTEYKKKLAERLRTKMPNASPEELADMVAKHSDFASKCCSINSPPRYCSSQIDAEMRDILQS

Rattus norvegicus [31] = assay: Ability to mobilize Bone-Calcium transport, following the administration of compound in rats at a concentration of 5 pmol at 13 hr.; format: functional, organism-based
Rattus norvegicus [32] = assay: Ability to stimulate intestinal-calcium transport by the administration of compound in rats at a concentration of 50 pmol at 2 hr.; format: functional, Intestine
Rattus norvegicus [33] = assay: Ability to mobilize Bone-Calcium transport, following the administration of compound in rats at a concentration of 5 pmol at 69 hr.; format: functional, organism-based
Rattus norvegicus [34] = assay: Ability to mobilize Bone-Calcium transport, following the administration of compound in rats at a concentration of 5000 pmol at 48 hr.; format: functional, organism-based
Rattus norvegicus [35] = assay: Ability to stimulate intestinal-calcium transport by the administration of compound in rats at a concentration of 5 pmol at 12 hr.; format: functional, Intestine
Rattus norvegicus [36] = assay: Ability to stimulate intestinal-calcium transport by the administration of compound in rats at a concentration of 5 pmol at 69 hr.; format: functional, Intestine
Rattus norvegicus [37] = assay: Ability to stimulate intestinal-calcium transport by the administration of compound in rats at a concentration of 500 pmol at 69 hr.; format: functional, Intestine

Compound	Serosal/Mucosal Ca (Rattus norvegicus [1])	Serum Ca2+ (Rattus norvegicus [2]) [mg/dL]	Serosal/Mucosal Ca (Rattus norvegicus [3])	Serum Ca2+ (Rattus norvegicus [4]) [mg/dL]	Serum Ca2+ (Rattus norvegicus [5]) [mg/dL]	Serum Ca2+ (Rattus norvegicus [6]) [mg/dL]	Serum Ca2+ (Rattus norvegicus [8]) [mg/dL]	Serum Ca2+ (Rattus norvegicus [10]) [mg/dL]	Serum Ca2+ (Rattus norvegicus [11]) [mg/dL]	Serum Ca2+ (Rattus norvegicus [12]) [mg/dL]	Serum Ca2+ (Rattus norvegicus [13]) [mg/dL]	Serum Ca2+ (Rattus norvegicus [14]) [mg/dL]	Serosal/Mucosal Ca (Rattus norvegicus [15])	Serosal/Mucosal Ca (Rattus norvegicus [16])	Serosal/Mucosal Ca (Rattus norvegicus [17])	Serosal/Mucosal Ca (Rattus norvegicus [18])	Serosal/Mucosal Ca (Rattus norvegicus [20])	Serosal/Mucosal Ca (Rattus norvegicus [21])	Serosal/Mucosal Ca (Rattus norvegicus [23])	Serosal/Mucosal Ca (Rattus norvegicus [24])	further results
C=C1CC[C@H](O)C/C1=C/C=C1\CCC[C@]2(C)[C@@H]([C@H](C)CCCC(C)(C)O)CC[C@@H]12 [CALCIFEDIOL ANHYDROUS]	2.17	4.14	7.19	4.12	5.5	4.66	4.22	5.06	4.48	4.1	4.34	4.32	2.84	2.03	2.42	4.8	2.93	3.31	7.19	2.22	Serum Ca2+ (Rattus norvegicus [7]): 5.12 mg/dL; Serum Ca2+ (Rattus norvegicus [9]): 4.86 mg/dL; Serosal/Mucosal Ca (Rattus norvegicus [19]): 11.54; Serosal/Mucosal Ca (Rattus norvegicus [22]): 11.48; Serosal/Mucosal Ca (Rattus norvegicus [25]): 9.99; Serosal/Mucosal Ca (Rattus norvegicus [26]): 2.83; Serum Ca2+ (Rattus norvegicus [27]): 6.82 mg/dL; Serum Ca2+ (Rattus norvegicus [28]): 5.82 mg/dL; Serum Ca2+ (Rattus norvegicus [29]): 4.64 mg/dL; B50 (Gallus gallus): 282 nM; B50 [30]: 3.77 nM; Serum Ca2+ (Rattus norvegicus [31]): 4.4 mg/dL; Serosal/Mucosal Ca (Rattus norvegicus [32]): 1.75
C=C1/C(=C\C=C2/CCC[C@]3(C)[C@@H]([C@H](C)CCCC(C)(C)O)CC[C@@H]23)C[C@@H](O)C[C@@H]1O [CALCITRIOL]	5.09	4.32	4.71	5.6	4.98	4.76	5.32	5	4.35	4.58	4.58	4.4	2.95	2.21	2.53	4.34	3.12	7.66	3.5	3.1	Serum Ca2+ (Rattus norvegicus [33]): 4.12 mg/dL; Serum Ca2+ (Rattus norvegicus [34]): 4.78 mg/dL; Serosal/Mucosal Ca (Rattus norvegicus [35]): 2.62; Serosal/Mucosal Ca (Rattus norvegicus [36]): 2.75; Serosal/Mucosal Ca (Rattus norvegicus [26]): 6.6; Serosal/Mucosal Ca (Rattus norvegicus [37]): 5.67; Serum Ca2+ (Rattus norvegicus [28]): 5.5 mg/dL; Serum Ca2+ (Rattus norvegicus [29]): 4.84 mg/dL; B50 (Gallus gallus): 0.0725 nM; B50 [30]: 45.3 nM; Serosal/Mucosal Ca (Rattus norvegicus [32]): 2.5
C=C1/C(=C\C=C2/CCC[C@]3(C)[C@@H]([C@H](C)CCC(F)(F)C(O)(CC)CC)CC[C@@H]23)C[C@@H](O)C[C@@H]1O	4.22	4.28	5.32	5.48	5.58	4.8	5.1	4.74	4.42	5	4.38	4.5	2.14	2.08	3.36	3.93	3.7	4.84	7.3	4.55	Serum Ca2+ (Rattus norvegicus [33]): 4.13 mg/dL; Serum Ca2+ (Rattus norvegicus [34]): 5.86 mg/dL; Serosal/Mucosal Ca (Rattus norvegicus [35]): 2.85; Serosal/Mucosal Ca (Rattus norvegicus [36]): 2.34; Serosal/Mucosal Ca (Rattus norvegicus [26]): 6.44; Serosal/Mucosal Ca (Rattus norvegicus [37]): 5.46; Serum Ca2+ (Rattus norvegicus [28]): 6.36 mg/dL; Serum Ca2+ (Rattus norvegicus [29]): 5.1 mg/dL; B50 (Gallus gallus): 0.495 nM; B50 [30]: 2200 nM; Serosal/Mucosal Ca (Rattus norvegicus [32]): 2.27
C=C1CC[C@H](O)C/C1=C/C=C1\CCC[C@]2(C)[C@@H]([C@H](C)CCC(F)(F)C(O)(CC)CC)CC[C@@H]12	1.97	4.38	8.65	4.56	5.1	4.22	4.4	4.72	4.28	4.18	4.9	4.4	2.34	1.89	1.61	6.16	3.77	3.18	7.11	2.58	Serum Ca2+ (Rattus norvegicus [7]): 4.5 mg/dL; Serum Ca2+ (Rattus norvegicus [9]): 4.14 mg/dL; Serosal/Mucosal Ca (Rattus norvegicus [19]): 3.29; Serosal/Mucosal Ca (Rattus norvegicus [22]): 9.39; Serosal/Mucosal Ca (Rattus norvegicus [25]): 8.04; Serosal/Mucosal Ca (Rattus norvegicus [26]): 2.27; Serum Ca2+ (Rattus norvegicus [27]): 5.92 mg/dL; Serum Ca2+ (Rattus norvegicus [28]): 5.9 mg/dL; Serum Ca2+ (Rattus norvegicus [29]): 4.78 mg/dL; B50 (Gallus gallus): 52.8 nM; B50 [30]: 25.8 nM; Serum Ca2+ (Rattus norvegicus [31]): 4.2 mg/dL; Serosal/Mucosal Ca (Rattus norvegicus [32]): 1.8
